According to article PMC3565751, “The Feasibility of Enzyme Targeted Activation for Amino Acid/Dipeptide Monoester Prodrugs of Floxuridine; Cathepsin D as a Potential Targeted Enzym” (Molecules, 2012):

Key:
[1] = target: T1, human cathepsin B (Homo sapiens, UniProt P07858); assay: Prodrug stability with human cathepsin B; assay type: biochemical; conditions: pH 7.4 phosphate buffer, 37 °C, 200 µM substrate
T1 construct: cathepsin B (human liver), and cathepsin D (human liver) were obtained from Sigma Chemical Co; purchased Sigma Chemical Co (St. Louis, MO, USA); host or cells: human liver (tissue-derived)
Description: (§1) The high expression levels of cathepsins in tumors have been reported. It has been investigated if the protein levels of cathepsin B and D would associate with pathological parameters in order to assess the difference in protein levels of cathepsins as possible tumor biomarkers. Cathepsin B, one of the highest gene expressions in enzymes of Capan-2 cell, is a cysteine endopeptidase and reportedly has similar activity to carboxypeptidase and peptidyl-dipeptidase. On the other hand, cathepsin D has been reported that it preferentially hydrolyzes the peptide bond of bulky hydrophobic amino acids and the peptide bond between Phe-Phe of Bz-Arg-Gly-Phe-Phe-Pro-4MbNA [75, 76, 77]. The metabolic stability of floxuridine prodrugs was assessed using human cathepsin B and D in pH 7.4 phosphate buffer. […] However, the enzyme specificity between cathepsin B and D in prodrug activation for those two prodrugs was not observed.
(§2) Prodrug stability with Cathepsin B and D. Lyophilized enzyme powder was dissolved and adjusted to 2.5 mg/mL of pure enzyme, human cathepsin B and D. The hydrolysis reactions were immediately started by adding substrates (200 µM) in 96-well plates (Corning). The reactions were carried out at 37 °C for 120 min (time points; 0, 5, 10, 30, 60, and 120 min). At each time point, aliquot sample (35 µL) was removed and added to 150 µL of acetonitrile (ACN) with 0.1% TFA. The mixtures were filtered with a 0.45 µm filters at 1,000 × g for 10 min at 4 °C. The filtrate was then analyzed via reverse-phase HPLC.
(§3) The initial rates of hydrolysis were used to obtain the apparent first-order rate constants and estimate the half-lives. The apparent first-order degradation rate constants of various floxuridine prodrugs at 37 °C were determined by plotting the logarithm of prodrug remaining as a function of time. […]
(§4) The concentrations of prodrugs and their metabolites were determined on a Waters HPLC system (Waters, Inc., Milford, MA, USA). […] Standard curves generated for each prodrug and their parent drugs were used for quantitation of integrated area under peaks.

[2] = target: T2, human cathepsin D (Homo sapiens, UniProt P07339); assay: Prodrug stability with human cathepsin D; assay type: biochemical; conditions: pH 7.4 phosphate buffer, 37 °C, 200 µM substrate
T2 construct: cathepsin B (human liver), and cathepsin D (human liver) were obtained from Sigma Chemical Co; purchased Sigma Chemical Co (St. Louis, MO, USA); host or cells: human liver (tissue-derived)
T2 sequence (P07339 169-412 limits assumed): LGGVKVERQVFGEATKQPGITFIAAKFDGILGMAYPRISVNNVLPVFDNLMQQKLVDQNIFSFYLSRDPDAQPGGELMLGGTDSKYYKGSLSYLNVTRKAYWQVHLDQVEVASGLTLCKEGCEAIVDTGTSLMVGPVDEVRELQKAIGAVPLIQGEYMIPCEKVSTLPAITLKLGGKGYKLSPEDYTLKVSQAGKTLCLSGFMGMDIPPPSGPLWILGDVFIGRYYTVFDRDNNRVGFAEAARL
T2 sequence (P07339 65-162 limits assumed): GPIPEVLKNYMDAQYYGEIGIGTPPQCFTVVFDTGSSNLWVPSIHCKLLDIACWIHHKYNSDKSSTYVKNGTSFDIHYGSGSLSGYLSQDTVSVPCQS
Description: as §1, §2, §3, §4

[3] = system: Capan-2 cell homogenates and cytosolic enzyme extracts; assay: Prodrug stability in cytosolic enzyme extract versus whole cell homogenate of Capan-2 cells; assay type: in vitro ADME
Protocol: In stability studies of test compounds in cell homogenates, the location of enzymes in living cells is not considered and the inaccessible enzymes in vivo condition may be able to degrade those analytes in this in vitro setting. Therefore, the result of prodrug stabilities in cell homogenate may be different to one in vivo, where all enzymes are arranged in all specific locations. The experiments of prodrug activation concerning the location of enzymes in cells were performed at 37 °C in Capan-2 cell homogenates and in cytosolic enzyme extracts. For the comparison purpose, the same experiments were performed at 37 °C in Caco-2 cell homogenates and in cytosolic enzyme extracts. […] The difference between them was minimal (1.4- to 2.5 fold). […] In Capan-2 cells, the stabilities of 5′-O-L-phenylalanyl-L-glycylfloxuridine and 5′-O-L-phenylalanylfloxuridine were improved 7.4- and 7.3-fold, while the ones of 5′-O-L- phenylalanyl-L-tyrosylfloxuridine and 5′-O-L-glycyl-L-leucylfloxuridine were declined 3.9- and 6.0-fold, respectively.
(§5) Preparation of Cytosolic Enzyme Extract. Confluent Caco-2 cells and Capan-2 cells (2 plates; 150 mm × 25 mm plate) were rinsed with saline twice. The cells were washed off with 1 mL of pH 7.4 phosphate buffer (10 mmol/L) and the enzymes were extracted through 30 gauge needle 10 times in ice-cold bath. Cell suspension was spun at 10,000 × g for 2 h at 4 °C and the supernatant was spun at 39,000 × g for 2 h at 4 °C. Protein amount was quantified with the Bio-Rad (Hercules, CA, USA) DC Protein Assay using bovine serum albumin as a standard. The protein amount was adjusted to 500 µg/mL and the hydrolysis reactions were carried out in 96-well plates (Corning). Caco-2 cells and Capan-2 cell suspensions (250 µL) were placed in triplicate wells either presence or absence of various inhibitors, the reactions were started with the addition of substrate (200 µM), and wells were incubated at 37 °C for 120 min (time points; 0, 5, 10, 30, 60, and 120 min). At each time point, aliquot sample (35 µL) was removed and added to 150 µL of acetonitrile (ACN) with 0.1% TFA to prevent the further degradation. The mixtures were filtered with a 0.45 µm filters at 1,000 × g for 10 min at 4 °C. The filtrate wasthen analyzed via reverse-phaseHPLC.
(§6) The initial rates of hydrolysis were used to obtain the apparent first-order rate constants and estimate the half-lives. The apparent first-order degradation rate constants of various floxuridine prodrugs at 37 °C were determined by plotting the logarithm of prodrug remaining as a function of time. The slopes of these plots are related to the rate constant, k, and given by:
(§7) The concentrations of prodrugs and their metabolites were determined on a Waters HPLC system (Waters, Inc., Milford, MA, USA). The HPLC system consisted of two Waters pumps (model 515), a Waters autosampler (WISP model 712), and a Waters UV detector (996 photodiode array detector). The system was controlled by Waters Millennium 32 software (version 3.0.1). Samples were injected onto a Waters Xterra C18 reverse-phase column (5 µm, 4.6 × 250 mm) equipped with a guard column. The compounds were eluted using gradient method. All prodrugs were run with the solvent B gradient changing 0% to 56% at a rate of 2%/min during a 28-min run. Standard curves generated for each prodrug and their parent drugs were used for quantitation of integrated area under peaks.

[4] = system: Capan-2 cell homogenate; assay: Prodrug hydrolysis in Capan-2 cell homogenate with the presence and the absence of selective enzyme inhibitors; assay type: in vitro ADME; conditions: for Half Life, DPP 3 Inhibitor: Capan-2 cell homogenate with 1,10-phenanthroline; for Half Life, DPP 3 Inhibitor / Half Life, TPP 2 Inhibitor / Half Life, Cathepsin D Inhibitor / Half Life, Aminopeptidase Inhibitor / Half Life, Capan-2 Cell Homogenate: 37 °C; for Half Life, DPP 3 Inhibitor / Half Life, TPP 2 Inhibitor / Half Life, Cathepsin D Inhibitor / Half Life, Aminopeptidase Inhibitor: pH 7.4; for Half Life, TPP 2 Inhibitor: Capan-2 cell homogenate with H-Ala-Ala-Phe-CMK CF3CO2H; for Half Life, Cathepsin D Inhibitor: Capan-2 cell homogenate with pepstatin A; for Half Life, Aminopeptidase Inhibitor: Capan-2 cell homogenate with puromycin; for Half Life, Capan-2 Cell Homogenate: no inhibitor, pH 7.4 phosphate buffer, 200 µM substrate, mean ± s.d.
Protocol: Hydrolysis StudiesPreparation of Capan-2 cell homogenates. Preparation of cell homogenates has been reported previously. Confluent Capan-2 cells (2 plates; 150 mm × 25 mm plate) were rinsed with saline twice. The cells were washed off with 5 mL of pH 7.4 phosphate buffer (10 mmol/L) and the lysed cells by ultrasonication (Micro ultrasonic cell disrupter Model KT40, Kontes, Vineland, NJ, USA) were spun down by centrifugation.
as §5, §6
k = 2.303 × slope (log C vs. time) (1)
The degradation half-lives were then estimated by the equation: […]
as §7

[5] = set-up: method as in PMID 18719516; conditions: pH 7.4 phosphate buffer; mean ± s.d.; ref [50]; cited from earlier work
[6] = system: Capan-2 cell lines; assay: Cell proliferation (XTT) assay; assay type: cell-based; conditions: 4 mmol/L, 4 h drug treatment
Protocol: The percentage of growth inhibition for amino acid/dipeptide monoester prodrugs of floxuridine in Capan-2 cell was evaluated via 2,3-bis[2-methoxy-4-nitro-5-sulfophenyl]-2H-tetrazolium-5-carboxanilideinner salt (XTT) assays (Figure 3). The growth inhibitory effect of tested floxuridine prodrugs after 4 h drug treatment range from 0.0–91.1% at 4 h, 0.0–84.2% at 8 h, and 41.8–84.8% at 24 h in Capan-2 cell lines. […] While specific activation enzymes for 5′-O-L-leucyl-L-glycylfloxuridine and 5′-O-L-phenylalanylfloxuridine have not been identified, those enzymes may be highly localized at the plasma membrane and cytosol. Thus, the activation of those prodrugs took place immediately after translocation of prodrugs into the cells and started inhibiting tumor growth. Leucine and phenylalanine are reportedly good substrates for aminopeptidases and carboxylesterase, respectively.
Cell proliferation studies were conducted with Capan-2 cell lines. The cells were seeded into 96-well plates at […] per well and allowed to attach/grow for 24 h before drug solutions were added. The culture medium (RPMI-1640 + 10% fetal bovine serum) was removed and the cells were gently washed once with sterile pH 6.0 uptake buffer (145 mM NaCl, 0.5 mM MgCl2, 1 mM NaH2PO4, 1 mM CaCl2, 3 mM KCl, 5 mM glucose, and 5 mM MES). Floxuridine prodrugs and floxuridine were diluted in pH 6.0 uptake buffer to 4 mmol/L using no drug as a 100% viability control. The wash buffer was removed and 25 µL drug solution per well were added and incubated at 37 °C for 4 h in the cell incubator. After this time, the drug solutions were removed and the cells were again gently washed twice with sterile uptake buffer. RPMI-1640 was then added to each well after washing. The cells were allowed to recover for 4 h, 8 h, or 24 h before evaluating cell viability via 2,3-bis[2-methoxy-4-nitro-5-sulfophenyl]-2H-tetrazolium-5-carboxanilide inner salt (XTT) assays. […] Absorbance readings at 450 nm were recorded.

| Structure (SMILES) | Stability (degradation) against cathepsin B compared with absence of enzyme [1] | Stability (degradation) against cathepsin D compared with absence of enzyme [2] | Hydrolysis products detected in cell homogenates and cytosolic enzyme extracts [3] | Hydrolysis products observed ([4]; Capan-2 cell homogenate) | Half Life, DPP 3 Inhibitor [4] | Half Life, TPP 2 Inhibitor [4] | Half Life, Cathepsin D Inhibitor [4] | Half Life, Aminopeptidase Inhibitor [4] | Half Life, Capan-2 Cell Homogenate [4] | Half Life, Phosphate Buffer pH 7.4 [5] | Change of stability in all conditions (with and without enzyme inhibitors) ([4]; Capan-2 cell homogenate) | Fold longer half life (stability improved) in cytosolic extract than in Capan-2 cell homogenate ([3]; 37 °C, pH 7.4 phosphate buffer) | Onset of growth inhibition of tumor cells [6] | Fold decline of stability in cytosolic extract versus Capan-2 cell homogenate ([3]; 37 °C, pH 7.4 phosphate buffer) | Change of half life with the presence of pepstatin A ([4]; Capan-2 cell homogenate) | Change of half lives with other enzyme inhibitors (not pepstatin A) ([4]; Capan-2 cell homogenate) |
| --- | --- | --- | --- | --- | --- | --- | --- | --- | --- | --- | --- | --- | --- | --- | --- | --- |
| CC(C)[C@H](N)C(=O)N[C@@H](Cc1ccccc1)C(=O)OC[C@H]1O[C@@H](n2cc(F)c(=O)[nH]c2=O)C[C@@H]1O [5'-O-L-valyl-L-phenylalanyl-floxuridine] | not a good substrate for cathepsins | not a good substrate for cathepsins | Floxuridine and amino acid mono ester prodrugs of floxuridine were observed | Amino acid monoester prodrugs of floxuridine and their parent drug were observed | 67.7 ± 15.1 min | 46.1 ± 1.9 min | 76.4 ± 6.1 min | 93.6 ± 29.3 min | 56.2 ± 12.8 min | 104.7 ± 7.0 min |  |  |  |  |  |  |
| CC(C)C[C@H](NC(=O)CN)C(=O)OC[C@H]1O[C@@H](n2cc(F)c(=O)[nH]c2=O)C[C@@H]1O [5'-O-L-glycyl-L-leucylfloxuridine] |  |  | Floxuridine and amino acid mono ester prodrugs of floxuridine were observed | Amino acid monoester prodrugs of floxuridine and their parent drug were observed |  |  |  |  |  |  | no change in its stability in all conditions |  |  |  |  |  |
| N[C@@H](Cc1ccccc1)C(=O)OC[C@H]1O[C@@H](n2cc(F)c(=O)[nH]c2=O)C[C@@H]1O [5'-O-L-phenylalanylfloxuridine] |  |  | only floxuridine was detected |  | 28.9 ± 10.7 min | 15.3 ± 0.6 min | 60.6 ± 4.6 min | 48.7 ± 0.37 min | 3.0 ± 0.1 min | 187.0 ± 19.0 min |  | 7.3 fold | immediately inhibited the growth of tumor cells |  |  |  |
| CC[C@H](C)[C@H](N)C(=O)NCC(=O)OC[C@H]1O[C@@H](n2cc(F)c(=O)[nH]c2=O)C[C@@H]1O [5′-O-L-isoleucyl-L-glycylfloxuridine] |  |  | only floxuridine was detected |  |  |  |  |  |  |  |  |  |  |  |  |  |
| N[C@@H](Cc1ccccc1)C(=O)N[C@@H](Cc1ccc(O)cc1)C(=O)OC[C@H]1O[C@@H](n2cc(F)c(=O)[nH]c2=O)C[C@@H]1O [5'-O-L-phenylalanyl-L-tyrosyl-floxuridine] | significant degradation | significant degradation | Floxuridine and amino acid mono ester prodrugs of floxuridine were observed | Amino acid monoester prodrugs of floxuridine and their parent drug were observed | 47.2 ± 3.6 min | 42.2 ± 1.3 min | 105.7 ± 12.8 min | 54.7 ± 2.8 min | 42.8 ± 0.0 min | 233.9 ± 6.6 min |  |  |  | 3.9 fold | significantly prolonged | not improved |
